± gives the standard deviation of the averaged measurements.
Legend:
Experiment in all cases: relative cell number vs DMSO control (72 h) (% of DMSO); higher = less growth inhibition (more cells)
Conditions in all cases: sgRNA knockout: sgNT
HCC-38 = test system: HCC-38
Protocol: (§1)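 QMAP-Seq: a pool of 5 breast cancer cell lines (ZR-75-1, SKBR3, HCC-38, MDA-MB-231, BT-20), each carrying 12 doxycycline-inducible Cas9 sgRNA perturbations (11 knockouts plus non-targeting sgNT), was treated with compounds for 72 h at four 10-fold doses (10 nM-10 uM or 1 nM-1 uM range). Barcodes were amplified and sequenced, and cell number was interpolated from 293T spike-in standard curves. The result is expressed as % of the median of DMSO wells. Two biological replicates.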

BT-20 = test system: BT-20
Protocol: as §1

MDA-MB-231 = test system: MDA-MB-231
Protocol: as §1

SKBR3 = test system: SKBR3
Protocol: as §1

ZR-75-1 = test system: ZR-75-1
Protocol: as §1

Row | SMILES | relative cell number (HCC-38; 10 nM) | relative cell number (HCC-38; 100 nM) | relative cell number (HCC-38; 1000 nM) | relative cell number (HCC-38; 10000 nM) | relative cell number (BT-20; 10 nM) | relative cell number (BT-20; 100 nM) | relative cell number (BT-20; 1000 nM) | relative cell number (BT-20; 10000 nM) | relative cell number (MDA-MB-231; 10 nM) | relative cell number (MDA-MB-231; 100 nM) | relative cell number (MDA-MB-231; 1000 nM) | relative cell number (MDA-MB-231; 10000 nM) | relative cell number (SKBR3; 10 nM) | relative cell number (SKBR3; 100 nM) | relative cell number (SKBR3; 1000 nM) | relative cell number (SKBR3; 10000 nM) | relative cell number (ZR-75-1; 10 nM) | relative cell number (ZR-75-1; 100 nM) | relative cell number (ZR-75-1; 1000 nM) | relative cell number (ZR-75-1; 10000 nM)
1 | COc1ccc(-c2ccc3c(N4CCOCC4)nc(N4C[C@@H](C)O[C@@H](C)C4)nc3n2)cc1CO | 100 ± 8.5 | 115 ± 5.9 | 92.1 ± 13 | 48.9 ± 3.5 | 110 ± 9.1 | 119 ± 17 | 77.5 ± 5.5 | 57.6 ± 7.1 | 85.2 ± 1.6 | 166 ± 26 | 113 ± 5.1 | 57.7 ± 19 | 84.2 ± 39 | 110 ± 26 | 80.7 ± 2.5 | 51.5 ± 6.7 | 65.9 ± 21 | 116 ± 21 | 101 ± 4.9 | 36.1 ± 2.1
2 | C[C@@H]1CN(CC(=O)Nc2ccc3c(c2)Cc2cccc(-c4cc(=O)cc(N5CCOCC5)o4)c2S3)C[C@H](C)O1 | 89.9 ± 3.7 | 110 ± 4.4 | 76.9 ± 3.3 | 64.3 ± 9.2 | 73.7 ± 24 | 119 ± 3.5 | 108 ± 8.4 | 62.4 ± 3.5 | 111 ± 4.9 | 85.1 ± 5.2 | 95.9 ± 20 | 59.4 ± 6.4 | 86.5 ± 26 | 95.9 ± 33 | 87.7 ± 36 | 33.6 ± 4.6 | 95.6 ± 6 | 92.7 ± 26 | 80.8 ± 9.4 | 38.7 ± 11
3 | O=c1cc(-c2cccc3c2Sc2ccccc2S3)oc(N2CCOCC2)c1 | 91.6 ± 7.9 | 79.2 ± 1.7 | 88.4 ± 18 | 82.7 ± 9.9 | 76.9 ± 1.4 | 116 ± 4.1 | 110.8 ± 0.94 | 109 ± 22 | 119 ± 4.4 | 77.3 ± 7.3 | 89.5 ± 12 | 46.8 ± 19 | 85.1 ± 17 | 94.4 ± 12 | 115 ± 17 | 54.3 ± 6.1 | 81.3 ± 28 | 98.8 ± 25 | 75.5 ± 26 | 58.3 ± 15
4 | CC/C(=C(\c1ccc(O)cc1)c1ccc(OCCN(C)C)cc1)c1ccccc1 [4-Hydroxytamoxifen] | 94.8 ± 10 | 93.2 ± 5.7 | 90.4 ± 20 | 81.5 ± 14 | 96.8 ± 8.9 | 88.3 ± 28 | 106 ± 10 | 74.5 ± 21 | 95.8 ± 17 | 88.2 ± 7.9 | 100 ± 3.5 | 96.2 ± 9 | 104 ± 19 | 100 ± 45 | 80 ± 2.2 | 40.6 ± 10 | 95.8 ± 9.6 | 61.5 ± 4.8 | 70.2 ± 15 | 34.6 ± 8.6
5 | O=c1[nH]cc(F)c(=O)[nH]1 [5-Fluorouracil] | 95.2 ± 6.8 | 121 ± 15 | 107 ± 21 | 66.2 ± 6.2 | 115 ± 7.9 | 110 ± 3.4 | 78.4 ± 7 | 57.9 ± 2.7 | 86.6 ± 16 | 113 ± 28 | 119 ± 16 | 49.2 ± 6.5 | 97.9 ± 14 | 79.7 ± 19 | 65.4 ± 18 | 17.5 ± 3.4 | 103 ± 28 | 83.2 ± 13 | 51.6 ± 1.8 | 41 ± 11
